Assay results: patent publication US20120115793A1, “PEPTIDOMIMETIC MACROCYCLES” (Alleron Therapeutics, Inc, priority 2008, published 2012)
Where a SMILES comes first, the peptide text is derived from it. Bridges are numbered along the chain shown (N, C = ends). [ ]: non-standard residue; d: D form. S5 = C=CCCC[C@](C)(N)C(=O)O

System: Molt-4 cell line
Assay type: cell-based
Details: 48 h
Protocol: Molt-4 cell line (ATCC catalog #CRL-1582) was grown in specific serum-supplemented media (RPMI-1640, Invitrogen catalog #72400) as recommended by ATCC. A day prior to the initiation of the study, cells were split at optimal cell density (2×10^5-5×10^5 cells/ml) to assure actively dividing cells. The next day, cells were washed twice in serum-free Opti-MEM media (Invitrogen, Catalog #51985) and cells were then plated at optimal cell density (10,000 cells/well) in 50 μl Opti-MEM media or Opti-MEM supplemented with 2%, 4% or 10% human serum (Bioreclamation, catalog #HMSRM) in 96-well white tissue culture plate (Nunc, catalog #136102).
For serum free experiment, peptidomimetic macrocycles were diluted from 2 mM stocks (100% DMSO) in sterile water to prepare 400 μM working solutions. The macrocycles and controls were diluted 10-fold first and then serially two-fold diluted in Opti-MEM in dosing plates to provide concentrations of between 1.2 and 40 μM. 50 μL of each dilution was then added to the appropriate wells of the test plate to achieve final concentrations of the polypeptides equal to between 0.6 to 20 μM. For studies using Opti-MEM supplemented with human serum (Bioreclamation, catalog #HMSRM), peptidomimetic macrocycles were diluted from 10 mM stocks (100% DMSO) in sterile water to prepare 2 mM working solutions. The peptide macrocycles and controls were diluted 10-fold first and then serially two-fold diluted in Opti-MEM in the presence of 2%, 4% or 10% of human serum to provide concentrations of the polypeptides equal to between 6.25 to 200 μM in dosing plates. 50 μL of each dilution was then added to the appropriate welts of the test plate to achieve final concentrations of the polypeptides equal to between 3.125 to 100 μM. Controls included wells without polypeptides containing the same concentration of DMSO as the wells containing the macrocycles, wells containing 0.1% Triton X-100 and wells containing no cells. Plates were incubated for 48 hours at 37° C. in humidified 5% CO2 atmosphere.
At the end of the incubation period, CellTiter-Glo assay was performed according to manufacturer's instructions (Promega, catalog #G7573) and luminescence was measured using Synergy HT Plate reader (BioTek).
The following macrocycles derived from the human MAML peptide sequences were tested in cell viability assays with the MOLT-4 tumor cell line: […]

EC50 [µM]	SMILES
> 20	CC[C@H](C)[C@H](NC(=O)[C@H](CCCNC(=N)N)NC(=O)[C@H](CCCNC(=N)N)NC(=O)[C@H](CCCNC(=N)N)NC(=O)[C@H](CC(C)C)NC(=O)[C@H](CCCNC(=N)N)NC(=O)[C@H](CCC(=O)O)NC(C)=O)C(=O)N[C@@H](CCC(=O)O)C(=O)N[C@@H](CC(C)C)C(=O)N[C@@H](CS)C(=O)N[C@@H](CCCNC(=N)N)C(=O)N[C@@H](CCCNC(=N)N)C(=O)N[C@@H](Cc1c[nH]cn1)C(=O)N[C@@H](Cc1c[nH]cn1)C(=O)N[C@@H](CO)C(=O)N[C@H](C(N)=O)[C@@H](C)O [Compound 2, Ac-ERLRRRIELCRRHHST-NH2] (Ac-ERLRRRIELCRRHHST-NH2)
11.5	CC[C@H](C)[C@H](NC(=O)[C@H](CCCNC(=N)N)NC(=O)[C@H](CCCNC(=N)N)NC(=O)[C@H](CCCNC(=N)N)NC(=O)[C@H](CC(C)C)NC(=O)[C@H](C)NC(=O)[C@H](CCC(=O)O)NC(C)=O)C(=O)N[C@@]1(C)CCCC=CCCC[C@@](C)(C(=O)N[C@@H](Cc2c[nH]cn2)C(=O)N[C@@H](Cc2c[nH]cn2)C(=O)N[C@@H](CO)C(=O)N[C@H](C(N)=O)[C@@H](C)O)NC(=O)[C@H](C)NC(=O)[C@H](CS)NC(=O)[C@H](CC(C)C)NC1=O [Compound 7, Ac-EALRRRI$LCA$HHST-NH2] (Ac-EALRRRI[S5]LCA[S5]HHST-NH2; staple 8-12)
11.5	CC[C@H](C)[C@@H]1NC(=O)[C@H](CCCNC(=N)N)NC(=O)[C@H](CCCNC(=N)N)NC(=O)[C@@](C)(NC(=O)[C@H](CC(C)C)NC(=O)[C@H](CCC(=O)O)NC(=O)[C@H](CCCNC(=N)N)NC(C)=O)CCCC=CCCC[C@@](C)(C(=O)N[C@@H](CC(C)C)C(=O)N[C@@H](CS)C(=O)N[C@@H](CCCNC(=N)N)C(=O)N[C@@H](CCCNC(=N)N)C(=O)N[C@@H](Cc2c[nH]cn2)C(=O)N[C@@H](Cc2c[nH]cn2)C(=O)N[C@@H](CO)C(=O)N[C@H](C(N)=O)[C@@H](C)O)NC1=O [Compound 8, Ac-REL$RRI$LCRRHHST-NH2] (Ac-REL[S5]RRI[S5]LCRRHHST-NH2; staple 4-8)
2.2	CC[C@H](C)[C@H](NC(=O)[C@H](CCCNC(=N)N)NC(=O)[C@H](CCCNC(=N)N)NC(=O)[C@H](CCCNC(=N)N)NC(=O)[C@H](CC(C)C)NC(=O)[C@H](CCCNC(=N)N)NC(=O)[C@H](CCC(=O)O)NC(C)=O)C(=O)N[C@@]1(C)CCCC=CCCC[C@@](C)(C(=O)N[C@@H](Cc2c[nH]cn2)C(=O)N[C@@H](Cc2c[nH]cn2)C(=O)N[C@@H](CO)C(=O)N[C@H](C(=O)N[C@@H](CS)C(=O)N[C@@H](CCC(=O)O)C(=O)N[C@@H](C)C(=O)N[C@@H](CCCNC(=N)N)C(=O)N[C@@H](Cc2ccc(O)cc2)C(=O)N[C@@H](CCC(=O)O)C(=O)N[C@@H](C)C(=O)N[C@H](C(N)=O)C(C)C)[C@@H](C)O)NC(=O)[C@H](CCCNC(=N)N)NC(=O)[C@H](CS)NC(=O)[C@H](CC(C)C)NC1=O [Compound 15, Ac-ERLRRRI$LCR$HHSTCEARYEAV-NH2] (Ac-ERLRRRI[S5]LCR[S5]HHSTCEARYEAV-NH2; staple 8-12)
11.7	CC[C@H](C)[C@@H]1NC(=O)[C@@](C)(NC(=O)[C@H](CCCNC(=N)N)NC(=O)[C@H](CCCNC(=N)N)NC(=O)[C@H](CC(C)C)NC(=O)[C@H](CCCNC(=N)N)NC(=O)[C@H](CCC(=O)O)NC(C)=O)CCCC=CCCC[C@@](C)(C(=O)N[C@@H](CCCNC(=N)N)C(=O)N[C@@H](CCCNC(=N)N)C(=O)N[C@@H](Cc2c[nH]cn2)C(=O)N[C@@H](Cc2c[nH]cn2)C(=O)N[C@@H](CO)C(=O)N[C@H](C(N)=O)[C@@H](C)O)NC(=O)[C@H](CC(C)C)NC(=O)[C@H](CCC(=O)O)NC1=O [Compound 16, Ac-ERLRR$IEL$RRHHST-NH2] (Ac-ERLRR[S5]IEL[S5]RRHHST-NH2; staple 6-10)
> 20	CC[C@H](C)[C@H](NC(=O)[C@H](CCCNC(=N)N)NC(=O)[C@H](CCCNC(=N)N)NC(C)=O)C(=O)N[C@@H](CCC(=O)O)C(=O)N[C@@H](CC(C)C)C(=O)N[C@@H](C)C(=O)N[C@@H](CCCNC(=N)N)C(=O)N[C@@H](CCCNC(=N)N)C(=O)N[C@@H](Cc1c[nH]cn1)C(=O)N[C@@H](Cc1c[nH]cn1)C(=O)N[C@@]1(C)CCCC=CCCC[C@@](C)(C(=O)N[C@@H](CCCNC(=N)N)C(=O)N[C@@H](Cc2ccc(O)cc2)C(=O)N[C@@H](CCC(=O)O)C(=O)N[C@@H](C)C(=O)N[C@H](C(N)=O)C(C)C)NC(=O)[C@H](CCC(=O)O)NC(=O)[C@H](C)NC(=O)[C@H]([C@@H](C)O)NC1=O [Compound 17, Ac-RRIELARRHH$TAE$RYEAV-NH2] (Ac-RRIELARRHH[S5]TAE[S5]RYEAV-NH2; staple 11-15)
> 20	CC[C@H](C)[C@H](NC(=O)[C@H](CCCNC(=N)N)NC(=O)[C@H](CCCNC(=N)N)NC(C)=O)C(=O)N[C@@H](CCC(=O)O)C(=O)N[C@@H](CC(C)C)C(=O)N[C@@H](C)C(=O)N[C@@H](CCCNC(=N)N)C(=O)N[C@@H](CCCNC(=N)N)C(=O)N[C@@]1(C)CCCC=CCCC[C@@](C)(C(=O)N[C@@H](CCC(=O)O)C(=O)N[C@@H](C)C(=O)N[C@@H](CCCNC(=N)N)C(=O)N[C@@H](Cc2ccc(O)cc2)C(=O)N[C@@H](CCC(=O)O)C(=O)N[C@@H](C)C(=O)N[C@H](C(N)=O)C(C)C)NC(=O)[C@H]([C@@H](C)O)NC(=O)[C@H](CO)NC(=O)[C@H](Cc2c[nH]cn2)NC1=O [Compound 18, Ac-RRIELARR$HST$EARYEAV-NH2] (Ac-RRIELARR[S5]HST[S5]EARYEAV-NH2; staple 9-13)
≥ 24.4	CC[C@H](C)[C@H](NC(=O)[C@H](CCCNC(=N)N)NC(=O)[C@H](CCCNC(=N)N)NC(=O)[C@H](CCCNC(=N)N)NC(=O)[C@H](CC(C)C)NC(=O)[C@H](C)NC(C)=O)C(=O)N[C@@]1(C)CCCC=CCCC[C@@](C)(C(=O)N[C@@H](Cc2c[nH]cn2)C(=O)N[C@@H](Cc2c[nH]cn2)C(=O)N[C@@H](CO)C(=O)N[C@H](C(N)=O)[C@@H](C)O)NC(=O)[C@H](C)NC(=O)[C@H](C)NC(=O)[C@H](CC(C)C)NC1=O [Compound 20, Ac-ALRRRI$LAA$HHST-NH2] (Ac-ALRRRI[S5]LAA[S5]HHST-NH2; staple 7-11)
> 20	CC[C@H](C)[C@H](NC(=O)[C@H](CCCNC(=N)N)NC(=O)[C@H](CCCNC(=N)N)NC(=O)[C@H](CCCNC(=N)N)NC(=O)[C@H](CC(C)C)NC(=O)[C@H](C)NC(C)=O)C(=O)N[C@@]1(C)CCCC=CCCC[C@@](C)(C(=O)N[C@@H](Cc2c[nH]cn2)C(=O)N[C@@H](Cc2c[nH]cn2)C(=O)N[C@@H](CO)C(=O)N[C@H](C(N)=O)[C@@H](C)O)NC(=O)[C@H](C)NC(=O)[C@H](CO)NC(=O)[C@H](CC(C)C)NC1=O [Compound 21, Ac-ALRRRI$LSA$HHST-NH2] (Ac-ALRRRI[S5]LSA[S5]HHST-NH2; staple 7-11)
> 20	CC[C@H](C)[C@H](NC(=O)[C@H](CCCNC(=N)N)NC(=O)[C@H](CCCNC(=N)N)NC(=O)[C@H](CCCNC(=N)N)NC(=O)[C@H](CC(C)C)NC(=O)[C@H](CCCNC(=N)N)NC(=O)[C@H](CCC(=O)O)NC(C)=O)C(=O)N[C@@H](CCC(=O)O)C(=O)N[C@@H](CC(C)C)C(=O)N[C@@H](C)C(=O)N[C@@H](C)C(=O)N[C@@H](CCCNC(=N)N)C(=O)N[C@@H](Cc1c[nH]cn1)C(=O)N[C@@H](Cc1c[nH]cn1)C(=O)N[C@@]1(C)CCCC=CCCC[C@@](C)(C(=O)N[C@@H](CCCNC(=N)N)C(=O)N[C@@H](Cc2ccc(O)cc2)C(=O)N[C@@H](CCC(=O)O)C(=O)N[C@@H](C)C(=O)N[C@H](C(N)=O)C(C)C)NC(=O)[C@H](CCC(=O)O)NC(=O)[C@H](C)NC(=O)[C@H]([C@@H](C)O)NC1=O [Compound 22, Ac-ERLRRRIELAARHH$TAE$RYEAV-NH2] (Ac-ERLRRRIELAARHH[S5]TAE[S5]RYEAV-NH2; staple 15-19)
> 20	CC[C@H](C)[C@H](NC(=O)[C@H](CCCNC(=N)N)NC(=O)[C@H](CCCNC(=N)N)NC(=O)[C@H](CCCNC(=N)N)NC(=O)[C@H](CC(C)C)NC(=O)[C@H](C)NC(C)=O)C(=O)N[C@@H](CCC(=O)O)C(=O)N[C@@H](CC(C)C)C(=O)N[C@@H](C)C(=O)N[C@@H](C)C(=O)N[C@@H](CCCNC(=N)N)C(=O)N[C@@H](Cc1c[nH]cn1)C(=O)N[C@@H](Cc1c[nH]cn1)C(=O)N[C@@]1(C)CCCC=CCCC[C@@](C)(C(=O)N[C@@H](CCCNC(=N)N)C(=O)N[C@@H](Cc2ccc(O)cc2)C(=O)N[C@@H](CCC(=O)O)C(=O)N[C@@H](C)C(=O)N[C@H](C(N)=O)C(C)C)NC(=O)[C@H](CCC(=O)O)NC(=O)[C@H](C)NC(=O)[C@H]([C@@H](C)O)NC1=O [Compound 24, Ac-ALRRRIELAARHH$TAE$RYEAV-NH2] (Ac-ALRRRIELAARHH[S5]TAE[S5]RYEAV-NH2; staple 14-18)
